# Measurements as given in ChEMBL document CHEMBL3885881, “DrugMatrix”.
# Species on record: Rattus norvegicus
# Test: DrugMatrix - Regimen: Daily Repeat
# Assay type: toxicity, organism-based, Sprague-Dawley
# Set-up: regimen Daily Repeat, gender Male, age 6-8 weeks
# Conditions: in vivo, po, route oral GAVAGE, […]; for ABSOLUTE BASOPHIL / ABSOLUTE EOSINOPHIL / ABSOLUTE LYMPHOCYTE / ABSOLUTE MONOCYTE / ABSOLUTE SEGMENTED NEUTROPHIL / BASOPHIL / EOSINOPHIL / ERYTHROCYTE COUNT / HEMATOCRIT / HEMOGLOBIN / LEUKOCYTE COUNT / LYMPHOCYTE / MEAN CORPUSCULAR HEMOGLOBIN / MEAN CORPUSCULAR HEMOGLOBIN CONCENTRATION / MEAN CORPUSCULAR VOLUME / MONOCYTE / NEUTROPHIL / NUCLEATED RED BLOOD CELLS / PLATELET COUNT: tissue Blood; for ALANINE AMINOTRANSFERASE / ALBUMIN / ALKALINE PHOSPHATASE / ASPARTATE AMINOTRANSFERASE / BLOOD UREA NITROGEN / CARBON DIOXIDE / CHLORIDE / CHOLESTEROL / CREATINE PHOSPHOKINASE / CREATININE / GLUCOSE / LACTATE DEHYDROGENASE / LIPASE / PHOSPHORUS / POTASSIUM / SODIUM / TOTAL BILIRUBIN / TOTAL PROTEIN / URIC ACID: tissue Plasma
# [1] = 0 mg/kg, 72 h, dose level Control, time 3 day
# [2] = 0 mg/kg, 120 h, dose level Control, time 5 day
# [3] = 2 mg/kg, 72 h, dose level High, time 3 day
smiles,measurement,setting,value
COc1ccc2c(c1)c(CC(=O)OCC(=O)O)c(C)n2C(=O)c1ccc(Cl)cc1 [ACEMETACIN],ABSOLUTE BASOPHIL,[1],0 CELLS/uL
same,ABSOLUTE EOSINOPHIL,[1],138.5 CELLS/uL
same,ABSOLUTE LYMPHOCYTE,[1],13978.67 CELLS/uL
same,ABSOLUTE MONOCYTE,[1],391 CELLS/uL
same,ABSOLUTE SEGMENTED NEUTROPHIL,[1],1608.5 CELLS/uL
same,BASOPHIL,[1],0%
same,EOSINOPHIL,[1],1%
same,ERYTHROCYTE COUNT,[1],5.8 x10E6/uL
same,HEMATOCRIT,[1],36.22%
same,HEMOGLOBIN,[1],13.65 G/DL
same,LEUKOCYTE COUNT,[1],16.12 x10E3/uL
same,LYMPHOCYTE,[1],86.67%
same,MEAN CORPUSCULAR HEMOGLOBIN,[1],23.58 pg
same,MEAN CORPUSCULAR HEMOGLOBIN CONCENTRATION,[1],37.72 G/DL
same,MEAN CORPUSCULAR VOLUME,[1],62.52 fL
same,MONOCYTE,[1],2.5%
same,NEUTROPHIL,[1],9.83%
same,NUCLEATED RED BLOOD CELLS,[1],0 /100WBC
same,PLATELET COUNT,[1],1214.17 x10E3/uL
same,ALANINE AMINOTRANSFERASE,[1],59.5 u/L
same,ALBUMIN,[1],4.1 G/DL
same,ALKALINE PHOSPHATASE,[1],393.83 u/L
same,ASPARTATE AMINOTRANSFERASE,[1],87.83 u/L
same,BLOOD UREA NITROGEN,[1],16.33 mg/dL
same,CARBON DIOXIDE,[1],28.17 mmol/L
same,CHLORIDE,[1],100.83 MEQ/L
same,CHOLESTEROL,[1],73.33 mg/dL
same,CREATINE PHOSPHOKINASE,[1],398 u/L
same,CREATININE,[1],0.2 mg/dL
same,GLUCOSE,[1],152.67 mg/dL
same,LACTATE DEHYDROGENASE,[1],501.5 u/L
same,LIPASE,[1],9.5 u/L
same,PHOSPHORUS,[1],10.77 mg/dL
same,POTASSIUM,[1],6.44 MEQ/L
same,SODIUM,[1],143.4 MEQ/L
same,TOTAL BILIRUBIN,[1],0.17 mg/dL
same,TOTAL PROTEIN,[1],5.92 G/DL
same,URIC ACID,[1],1.68 mg/dL
same,ABSOLUTE BASOPHIL,[2],0 CELLS/uL
same,ABSOLUTE EOSINOPHIL,[2],183.33 CELLS/uL
same,ABSOLUTE LYMPHOCYTE,[2],14952.83 CELLS/uL
same,ABSOLUTE MONOCYTE,[2],238.5 CELLS/uL
same,ABSOLUTE SEGMENTED NEUTROPHIL,[2],1642 CELLS/uL
same,BASOPHIL,[2],0%
same,EOSINOPHIL,[2],1%
same,ERYTHROCYTE COUNT,[2],5.89 x10E6/uL
same,HEMATOCRIT,[2],36.13%
same,HEMOGLOBIN,[2],13.37 G/DL
same,LEUKOCYTE COUNT,[2],17.02 x10E3/uL
same,LYMPHOCYTE,[2],87.17%
same,MEAN CORPUSCULAR HEMOGLOBIN,[2],22.73 pg
same,MEAN CORPUSCULAR HEMOGLOBIN CONCENTRATION,[2],37.02 G/DL
same,MEAN CORPUSCULAR VOLUME,[2],61.45 fL
same,MONOCYTE,[2],1.5%
same,NEUTROPHIL,[2],10.33%
same,NUCLEATED RED BLOOD CELLS,[2],0 /100WBC
same,PLATELET COUNT,[2],1183.5 x10E3/uL
same,ALANINE AMINOTRANSFERASE,[2],54.83 u/L
same,ALBUMIN,[2],4.28 G/DL
same,ALKALINE PHOSPHATASE,[2],363.17 u/L
same,ASPARTATE AMINOTRANSFERASE,[2],96.83 u/L
same,BLOOD UREA NITROGEN,[2],15.67 mg/dL
same,CARBON DIOXIDE,[2],26.17 mmol/L
same,CHLORIDE,[2],102.67 MEQ/L
same,CHOLESTEROL,[2],63.67 mg/dL
same,CREATINE PHOSPHOKINASE,[2],594.33 u/L
same,CREATININE,[2],0.2 mg/dL
same,GLUCOSE,[2],182.33 mg/dL
same,LACTATE DEHYDROGENASE,[2],656.5 u/L
same,LIPASE,[2],9.33 u/L
same,PHOSPHORUS,[2],11.7 mg/dL
same,POTASSIUM,[2],5.92 MEQ/L
same,SODIUM,[2],142.62 MEQ/L
same,TOTAL BILIRUBIN,[2],0.13 mg/dL
same,TOTAL PROTEIN,[2],5.85 G/DL
same,URIC ACID,[2],1.8 mg/dL
same,ABSOLUTE BASOPHIL,[3],0 CELLS/uL
same,ABSOLUTE EOSINOPHIL,[3],380 CELLS/uL
same,ABSOLUTE LYMPHOCYTE,[3],13622 CELLS/uL
same,ABSOLUTE MONOCYTE,[3],500 CELLS/uL
same,ABSOLUTE SEGMENTED NEUTROPHIL,[3],2164.67 CELLS/uL
same,BASOPHIL,[3],0%
same,EOSINOPHIL,[3],2.33%
same,ERYTHROCYTE COUNT,[3],5.07 x10E6/uL
same,HEMATOCRIT,[3],32.77%
same,HEMOGLOBIN,[3],12.63 G/DL
same,LEUKOCYTE COUNT,[3],16.67 x10E3/uL
same,LYMPHOCYTE,[3],81.67%
same,MEAN CORPUSCULAR HEMOGLOBIN,[3],24.97 pg
same,MEAN CORPUSCULAR HEMOGLOBIN CONCENTRATION,[3],38.57 G/DL
same,MEAN CORPUSCULAR VOLUME,[3],64.77 fL
same,MONOCYTE,[3],3%
same,NEUTROPHIL,[3],13%
same,NUCLEATED RED BLOOD CELLS,[3],0.33 /100WBC
same,PLATELET COUNT,[3],1026.67 x10E3/uL
same,ALANINE AMINOTRANSFERASE,[3],66.67 u/L
same,ALBUMIN,[3],4.07 G/DL
same,ALKALINE PHOSPHATASE,[3],414.67 u/L
same,ASPARTATE AMINOTRANSFERASE,[3],86 u/L
same,BLOOD UREA NITROGEN,[3],15 mg/dL
same,CARBON DIOXIDE,[3],28.67 mmol/L
same,CHLORIDE,[3],101.67 MEQ/L
same,CHOLESTEROL,[3],68 mg/dL
same,CREATINE PHOSPHOKINASE,[3],297.67 u/L
same,CREATININE,[3],0.19 mg/dL
same,GLUCOSE,[3],146.67 mg/dL
same,LACTATE DEHYDROGENASE,[3],197.67 u/L
same,LIPASE,[3],9.33 u/L
same,PHOSPHORUS,[3],10.4 mg/dL
same,POTASSIUM,[3],6.36 MEQ/L
same,SODIUM,[3],141.2 MEQ/L
same,TOTAL BILIRUBIN,[3],0.17 mg/dL
same,TOTAL PROTEIN,[3],5.47 G/DL
same,URIC ACID,[3],1.13 mg/dL
